Reference: paper PMC5196488 (International Journal for Parasitology: Drugs and Drug …, 2016)

What was measured:
S7.1R (Dj-S7.1R) [1] = target: T1, S7.1R (Dj-S7.1R) (Dugesia japonica, UniProt O15969); test: GloSensor cAMP luminescence in transfected HEK293 cells, peak amplitude; format: cell-based
T1 sequence (O15969 1-478): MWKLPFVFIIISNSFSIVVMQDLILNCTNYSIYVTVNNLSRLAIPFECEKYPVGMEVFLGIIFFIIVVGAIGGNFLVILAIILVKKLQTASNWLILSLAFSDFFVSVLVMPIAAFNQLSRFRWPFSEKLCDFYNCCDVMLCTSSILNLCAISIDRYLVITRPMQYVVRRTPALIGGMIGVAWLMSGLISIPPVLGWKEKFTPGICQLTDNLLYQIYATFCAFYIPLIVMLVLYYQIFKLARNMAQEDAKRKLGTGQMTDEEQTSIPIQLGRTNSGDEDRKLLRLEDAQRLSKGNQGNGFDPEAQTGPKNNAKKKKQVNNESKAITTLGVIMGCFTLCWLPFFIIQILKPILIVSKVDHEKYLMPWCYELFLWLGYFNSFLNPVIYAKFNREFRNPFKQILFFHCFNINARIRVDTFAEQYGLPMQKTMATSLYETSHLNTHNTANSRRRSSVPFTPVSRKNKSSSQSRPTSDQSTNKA

S7.1R (Dj-S7.1R) [2] = target: T1, S7.1R (Dj-S7.1R); format: cell-based

IC50 (S7.1R (Dj-S7.1R) [2])	Structure (SMILES)	EC50 (S7.1R (Dj-S7.1R) [1])
	NCCc1c[nH]c2ccc(O)cc12 [5-HT]	82 ± 5 nM
1800 ± 500 nM	CC(C)C[C@H]1C(=O)N2CCC[C@H]2[C@]2(O)O[C@](NC(=O)[C@@H]3C=C4c5cccc6[nH]c(Br)c(c56)C[C@H]4N(C)C3)(C(C)C)C(=O)N12 [bromocriptine]	
